# Source: ChEMBL document CHEMBL1140388, “Privileged structure-based ligands for melanocortin receptors-tetrahydroquinolines, indoles, and aminotetralines” (Bioorg Med Chem Lett, 2005)
# Tests used:
# [1] = molecular target: Melanocortin receptor 4 (Homo sapiens, UniProt P32245); assay: Inhibition of [125I]-NDP MSH binding towards human melanocortin 4 receptor
# [2] = molecular target: Melanocyte-stimulating hormone receptor (Homo sapiens, UniProt Q01726); assay: Inhibition of [125I]-NDP MSH binding towards human melanocortin 1 receptor
# [3] = molecular target: Melanocortin receptor (M4 and M5) (Homo sapiens) (UniProt P32245+P33032); assay: Binding selectivity across hMC 4 and hMC 5 by determining the competitive inhibition of [125 I]NDP MSH binding; format: protein assay
# [4] = molecular target: Melanocortin receptor (M1 and M4) (Homo sapiens) (UniProt P32245+Q01726); assay: Binding selectivity across hMC 4 and hMC 1 by determining the competitive inhibition of [125 I]NDP MSH binding; format: protein assay
# [5] = molecular target: Melanocortin receptor (M3 and M4) (Homo sapiens) (UniProt P32245+P41968); assay: Binding selectivity across hMC 4 and hMC 3 by determining the competitive inhibition of [125 I]NDP MSH binding; format: protein assay
# [6] = molecular target: Melanocortin receptor 3 (Homo sapiens, UniProt P41968); assay: Inhibition of [125I]-NDP MSH binding towards human melanocortin 3 receptor
# [7] = molecular target: Melanocortin receptor 5 (Homo sapiens, UniProt P33032); assay: Inhibition of [125I]-NDP MSH binding towards human melanocortin 5 receptor
# Melanocortin receptor 5, sequence (P33032 whole entry): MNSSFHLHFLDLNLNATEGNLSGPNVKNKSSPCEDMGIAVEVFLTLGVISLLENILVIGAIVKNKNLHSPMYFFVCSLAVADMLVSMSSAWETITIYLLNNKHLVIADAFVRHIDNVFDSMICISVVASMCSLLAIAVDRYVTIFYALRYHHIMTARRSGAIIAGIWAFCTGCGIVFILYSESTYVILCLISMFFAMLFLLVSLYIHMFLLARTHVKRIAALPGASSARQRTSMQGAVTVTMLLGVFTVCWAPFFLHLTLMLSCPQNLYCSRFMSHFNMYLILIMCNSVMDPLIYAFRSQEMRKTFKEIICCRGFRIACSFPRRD
# Melanocortin receptor (M4 and M5) (Homo sapiens), sequence (P32245 whole entry, looked up): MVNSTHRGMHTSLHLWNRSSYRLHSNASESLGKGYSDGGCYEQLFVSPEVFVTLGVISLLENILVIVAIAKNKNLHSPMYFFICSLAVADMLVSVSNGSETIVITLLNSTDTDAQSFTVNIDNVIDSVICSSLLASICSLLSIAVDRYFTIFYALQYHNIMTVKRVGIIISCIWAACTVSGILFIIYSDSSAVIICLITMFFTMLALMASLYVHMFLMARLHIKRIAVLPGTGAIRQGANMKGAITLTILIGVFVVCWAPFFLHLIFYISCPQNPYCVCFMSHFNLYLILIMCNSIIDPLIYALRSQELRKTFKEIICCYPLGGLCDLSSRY
# Melanocortin receptor (M4 and M5) (Homo sapiens), sequence (P33032 whole entry, looked up): as the sequence (P33032 whole entry) above
# Melanocortin receptor 4, sequence (P32245 whole entry): as the sequence (P32245 whole entry, looked up) above
# Melanocyte-stimulating hormone receptor, sequence (Q01726 whole entry): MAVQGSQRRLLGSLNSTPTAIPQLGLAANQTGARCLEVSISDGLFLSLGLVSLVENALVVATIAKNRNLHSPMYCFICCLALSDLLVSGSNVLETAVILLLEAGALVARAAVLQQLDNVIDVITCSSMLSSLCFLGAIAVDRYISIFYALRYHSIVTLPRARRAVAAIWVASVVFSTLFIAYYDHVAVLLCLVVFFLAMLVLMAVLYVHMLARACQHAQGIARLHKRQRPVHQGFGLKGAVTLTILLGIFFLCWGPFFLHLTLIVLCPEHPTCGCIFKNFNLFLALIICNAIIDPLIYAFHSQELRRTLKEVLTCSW
# Melanocortin receptor 3, sequence (P41968 whole entry): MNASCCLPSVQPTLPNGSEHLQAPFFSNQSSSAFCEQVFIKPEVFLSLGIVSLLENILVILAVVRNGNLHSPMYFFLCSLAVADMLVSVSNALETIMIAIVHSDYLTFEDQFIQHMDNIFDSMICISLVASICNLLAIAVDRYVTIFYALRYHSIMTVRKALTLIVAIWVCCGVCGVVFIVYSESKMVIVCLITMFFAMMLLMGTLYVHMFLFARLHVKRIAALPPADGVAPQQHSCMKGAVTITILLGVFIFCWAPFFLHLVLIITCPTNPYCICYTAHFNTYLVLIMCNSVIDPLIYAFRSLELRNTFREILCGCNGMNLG
Ki [1],SMILES,also measured
900 nM,CS(=O)(=O)N1CCCc2cccc(N3CCN(C(=O)C(Cc4ccc(Cl)cc4)NC(=O)[C@H]4Cc5ccccc5CN4)CC3)c21 (stereo partly drawn),–
280 nM,CN1CCc2cccc(N3CCN(C(=O)[C@@H](Cc4ccc(Cl)cc4)NC(=O)[C@H]4Cc5ccccc5CN4)CC3)c2C1,–
190 nM,CCN1CCc2cccc(N3CCN(C(=O)[C@@H](Cc4ccc(Cl)cc4)NC(=O)[C@H]4Cc5ccccc5CN4)CC3)c2C1,–
4200 nM,O=C(N[C@H](Cc1ccc(Cl)cc1)C(=O)N1CCN(c2cccc3c2CCCC3)CC1)[C@H]1Cc2ccccc2CN1,Ki [2]: 3000 nM; Binding selectivity [3]: 3.8; Binding selectivity [4]: 47; Binding selectivity [5]: 181; Ki [6]: 1200 nM; Ki [7]: 260 nM
150 nM,CNC1CCc2cccc(N3CCN(C(=O)[C@@H](Cc4ccc(Cl)cc4)NC(=O)[C@H]4Cc5ccccc5CN4)CC3)c2C1 (stereo partly drawn),–
700 nM,CCN1CCc2c(cccc2N2CCN(C(=O)[C@@H](Cc3ccc(Cl)cc3)NC(=O)[C@H]3Cc4ccccc4CN3)CC2)C1,–
70 nM,CN(C)C1CCc2cccc(N3CCN(C(=O)[C@@H](Cc4ccc(Cl)cc4)NC(=O)[C@H]4Cc5ccccc5CN4)CC3)c2C1 (stereo partly drawn),Ki [2]: 4000 nM; Binding selectivity [3]: 5.6; Binding selectivity [4]: 72; Binding selectivity [5]: 164; Ki [6]: 8200 nM; Ki [7]: 280 nM
50 nM,CN(C)[C@H]1CCc2cccc(N3CCN(C(=O)[C@@H](Cc4ccc(Cl)cc4)NC(=O)[C@H]4Cc5ccccc5CN4)CC3)c2C1,–
170 nM,CCN(CC)C1CCc2cccc(N3CCN(C(=O)[C@@H](Cc4ccc(Cl)cc4)NC(=O)[C@H]4Cc5ccccc5CN4)CC3)c2C1 (stereo partly drawn),–
4800 nM,O=C(N[C@H](Cc1ccc(Cl)cc1)C(=O)N1CCN(c2cccc3cc[nH]c23)CC1)[C@H]1Cc2ccccc2CN1,–
530 nM,CN(C1CCc2cccc(N3CCN(C(=O)[C@@H](Cc4ccc(Cl)cc4)NC(=O)[C@H]4Cc5ccccc5CN4)CC3)c2C1)S(C)(=O)=O (stereo partly drawn),–
80 nM,CN(C)[C@@H]1CCc2cccc(N3CCN(C(=O)[C@@H](Cc4ccc(Cl)cc4)NC(=O)[C@H]4Cc5ccccc5CN4)CC3)c2C1,–
1600 nM,O=C(N[C@H](Cc1ccc(Cl)cc1)C(=O)N1CCN(c2cccc3c2NCCC3)CC1)[C@H]1Cc2ccccc2CN1,–
410 nM,CC(=O)NC1CCc2cccc(N3CCN(C(=O)[C@@H](Cc4ccc(Cl)cc4)NC(=O)[C@H]4Cc5ccccc5CN4)CC3)c2C1 (stereo partly drawn),–
2500 nM,O=C(N[C@H](Cc1ccc(Cl)cc1)C(=O)N1CCN(c2cccc3c2CN(S(=O)(=O)c2ccccc2)CC3)CC1)[C@H]1Cc2ccccc2CN1,Ki [2]: 7000 nM; Binding selectivity [3]: 2.6; Binding selectivity [4]: 23; Binding selectivity [5]: 4; Ki [6]: 1200 nM; Ki [7]: 700 nM
3900 nM,CS(=O)(=O)N1CCc2c(cccc2N2CCN(C(=O)[C@@H](Cc3ccc(Cl)cc3)NC(=O)[C@H]3Cc4ccccc4CN3)CC2)C1,–
600 nM,CS(=O)(=O)N1CCc2cccc(N3CCN(C(=O)[C@@H](Cc4ccc(Cl)cc4)NC(=O)[C@H]4Cc5ccccc5CN4)CC3)c2C1,–
180 nM,CCCN(CCC)C1CCc2cccc(N3CCN(C(=O)[C@@H](Cc4ccc(Cl)cc4)NC(=O)[C@H]4Cc5ccccc5CN4)CC3)c2C1 (stereo partly drawn),–
500 nM,CC(=O)N1CCc2cccc(N3CCN(C(=O)[C@@H](Cc4ccc(Cl)cc4)NC(=O)[C@H]4Cc5ccccc5CN4)CC3)c2C1,–
2100 nM,O=C(N[C@H](Cc1ccc(Cl)cc1)C(=O)N1CCN(c2cccc3c2NCC3)CC1)[C@H]1Cc2ccccc2CN1,–
900 nM,CS(=O)(=O)N1CCc2cccc(N3CCN(C(=O)C(Cc4ccc(Cl)cc4)NC(=O)[C@H]4Cc5ccccc5CN4)CC3)c21 (stereo partly drawn),–
7700 nM,CC(=O)N1CCCc2cccc(N3CCN(C(=O)[C@@H](Cc4ccc(Cl)cc4)NC(=O)[C@H]4Cc5ccccc5CN4)CC3)c21,Ki [2]: 20000 nM; Binding selectivity [3]: 5; Binding selectivity [4]: 23; Binding selectivity [5]: 0.6; Ki [6]: 500 nM; Ki [7]: 4000 nM
950 nM,CC(C)S(=O)(=O)N1CCc2cccc(N3CCN(C(=O)[C@@H](Cc4ccc(Cl)cc4)NC(=O)[C@H]4Cc5ccccc5CN4)CC3)c2C1,–
240 nM,NC1CCc2cccc(N3CCN(C(=O)[C@@H](Cc4ccc(Cl)cc4)NC(=O)[C@H]4Cc5ccccc5CN4)CC3)c2C1 (stereo partly drawn),–
